Reference: the NIST ThermoML archive (doi:10.1021/je049743g)
Where “and” joins values, the source holds several entries; their conditions need not be identical. Equal values may be shown once.

Assay: wn = mass fraction of the nth substance listed
Conditions: Capillary rise

FC(C(F)(F)F)C(F)(F)F [1,1,1,2,3,3,3-heptafluoropropane] + FCF
Conditions	surface tension liquid-gas
252.66 K, w2 = 0.3988	12.74 mN/m and 12.77 mN/m
252.82 K, w2 = 0.3003	12.41 mN/m
254.68 K, w2 = 0.3983	12.35 mN/m and 12.37 mN/m
254.83 K, w2 = 0.544	12.71 mN/m
255.1 K, w2 = 0.2998	12.14 mN/m and 12.13 mN/m
256.92 K, w2 = 0.354	11.85 mN/m
257.09 K, w2 = 0.5434	12.37 mN/m and 12.38 mN/m
257.1 K, w2 = 0.2993	11.77 mN/m and 11.79 mN/m
257.1 K, w2 = 0.3977	12.02 mN/m and 12.03 mN/m
258.83 K, w2 = 0.5429	11.97 mN/m
258.84 K, w2 = 0.7282	12.63 mN/m and 12.65 mN/m
258.88 K, w2 = 0.3972	11.74 mN/m
259 K, w2 = 0.2988	11.52 mN/m and 11.51 mN/m
260.89 K, w2 = 0.3528	11.26 mN/m and 11.25 mN/m
260.99 K, w2 = 0.5423	11.65 mN/m
261.01 K, w2 = 0.2982	11.3 mN/m
261.05 K, w2 = 0.3966	11.49 mN/m and 11.48 mN/m
262.75 K, w2 = 0.2977	11 mN/m and 10.97 mN/m
262.79 K, w2 = 0.3521	11.06 mN/m
262.8 K, w2 = 0.7274	12.12 mN/m and 12.08 mN/m
262.85 K, w2 = 0.3961	11.14 mN/m
262.96 K, w2 = 0.5417	11.34 mN/m
262.98 K, w2 = 0.3961	11.14 mN/m and 11.18 mN/m
264.66 K, w2 = 0.727	11.63 mN/m and 11.62 mN/m
264.68 K, w2 = 0.5412	11.11 mN/m and 11.09 mN/m
264.87 K, w2 = 0.3955	10.9 mN/m and 10.92 mN/m
264.88 K, w2 = 0.3514	10.71 mN/m and 10.75 mN/m
264.96 K, w2 = 0.297	10.65 mN/m
266.51 K, w2 = 0.2966	10.42 mN/m and 10.44 mN/m
266.75 K, w2 = 0.5405	10.75 mN/m and 10.74 mN/m
266.88 K, w2 = 0.3507	10.44 mN/m and 10.47 mN/m
267.04 K, w2 = 0.3948	10.5 mN/m and 10.52 mN/m
268.37 K, w2 = 0.296	10.2 mN/m and 10.23 mN/m
268.37 K, w2 = 0.54	10.53 mN/m and 10.52 mN/m
268.63 K, w2 = 0.7261	11.05 mN/m and 11 mN/m
268.72 K, w2 = 0.3943	10.33 mN/m
268.79 K, w2 = 0.35	10.2 mN/m and 10.23 mN/m
270.7 K, w2 = 0.3936	10.06 mN/m and 10.03 mN/m
270.78 K, w2 = 0.3493	9.92 mN/m
270.78 K, w2 = 0.5392	10.1 mN/m
270.81 K, w2 = 0.2952	9.83 mN/m and 9.86 mN/m
272.17 K, w2 = 0.7252	10.38 mN/m
272.9 K, w2 = 0.2945	9.56 mN/m and 9.6 mN/m
272.91 K, w2 = 0.7249	10.28 mN/m
273.15 K, w2 = 0.3928	9.64 mN/m and 9.66 mN/m
273.15 K, w2 = 0.5383	9.73 mN/m
273.6 K, w2 = 0.3482	9.51 mN/m
275.16 K, w2 = 0.2937	9.29 mN/m and 9.31 mN/m
275.3 K, w2 = 0.392	9.26 mN/m and 9.29 mN/m
275.48 K, w2 = 0.5375	9.44 mN/m
275.5 K, w2 = 0.3474	9.19 mN/m and 9.23 mN/m
